Results reported in patent publication US6733982B1, “Method for screening compounds for alpha1B adrenergic receptor antagonist and analgesic activity” (Syntex (U.S.A.) LLC, priority 1999, dated 2004).

Legend:
[1] = molecular target: T1, alpha1B adrenergic receptor (Homo sapiens, UniProt P35368); assay: [3H]prazosin radioligand binding on membranes of alpha1 adrenergic receptor transfected CHO-K1 cells; details: methods of Example 1: alpha1A, alpha1B and alpha1D transfected CHO-K1 cells
T1 construct: expressed in transfected cells; host or cells: CHO-K1
T1 sequence (P35368 1-520): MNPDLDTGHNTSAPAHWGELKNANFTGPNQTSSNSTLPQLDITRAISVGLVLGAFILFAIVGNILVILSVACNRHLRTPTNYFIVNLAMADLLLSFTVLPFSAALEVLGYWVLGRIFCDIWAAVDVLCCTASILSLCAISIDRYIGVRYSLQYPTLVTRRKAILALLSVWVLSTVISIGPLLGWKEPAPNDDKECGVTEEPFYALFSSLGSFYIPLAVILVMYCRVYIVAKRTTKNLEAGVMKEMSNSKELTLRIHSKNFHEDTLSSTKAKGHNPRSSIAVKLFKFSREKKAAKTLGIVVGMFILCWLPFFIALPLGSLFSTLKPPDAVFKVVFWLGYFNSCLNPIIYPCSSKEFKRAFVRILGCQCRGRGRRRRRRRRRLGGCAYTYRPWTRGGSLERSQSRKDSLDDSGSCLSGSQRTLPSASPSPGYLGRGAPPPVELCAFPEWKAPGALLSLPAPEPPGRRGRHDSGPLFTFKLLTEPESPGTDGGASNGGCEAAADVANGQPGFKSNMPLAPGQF
Description: Alpha1A, alpha1B and Alpha1D adrenergic receptor transfected CHO-K1 cells, prepared using the methods described in Chang et al. (1998) FEBS Lett. 422:279-283, were grown to confluence in T-162 tissue culture flasks in Ham's F-12 culture medium supplemented with 10% fetal bovine serum, geneticin (150 μg/ml) and streptomycin: penicillin (30 μg/ml:30 μg/ml) at 37° C. in 7% CO2. Cells were harvested by incubating with phosphate-buffered saline (PBS) containing 30 μM EDTA for 5-10 min at 37° C. Cells were pelleted by centrifuging at 500×g for 5 min, the pelleted cells were homogenized (Polytron homogenizer) in 10 vols (w/v) of 50 mM Tris, 1 mM EDTA, (homogenisation buffer, pH 7.4 at 4° C.). The homogenate was centrifuged at 45,000×g for 20 min. […]
The membranes were thawed at room temperature and diluted in assay buffer (50 mM Tris, pH 7.4) at 37° C. and homogenized using the Polytron tissue disrupter. […] Scintillation cocktail was added to the filter plates and bound radioligand determined by liquid scintillation spectrophotometry.
For each experiment, total binding (in the absence of any test or reference compounds) and non specific binding (10 μM phentolamine) were determined. […] If the radioligand KD was known, the inhibition dissociation constant (Ki) of each ligand was determined according to the method of Cheng et al. (1973) Biochem. Pharmacol. 22:3099-3108).

[2] = system: neuropathic rats (chronic constriction injury); assay: Cold allodynia response (cold bath assay) in neuropathic (chronic constriction injury) rats; format: in vivo, rat
Description: This experiment was conducted to evaluate the effects of 4-(2-benzofuran-7-yl-5-oxo-oxazol-4-ylidenemethyl)-N-phenyl-piperazine-1-carboxamidine hydrochloride, and similar or related compounds, on the cold allodynia response in neuropathic rats. The test apparatus and methods of behavioral testing is described in Gogas et al. (1997) Analgesia 3:111-118.
Male Sprague-Dawley rats (Harlan), 160-200 g, were surgically prepared to have a chronic constriction injury (CCl) as described above 6 days prior to testing. Rats were selected for the study according to the following criteria: 1) the average of two trials was less than or equal to 13 sec; and 2) there was consistency across the two trial scores. Animals were screened for hypersensitivy to cold on post-surgery days 4 through 10, and selected for inclusion in dose-response studies based on the criteria described above. The pre-dose screening values were used as the animals' baseline cold allodynia scores.
Selected rats were tested twice in the cold bath assay described above for a pre-dose baseline and randomly assigned to treatment groups and dosed at 0 (vehicle, 10 ml/kg, 0.5% CMC, 30, 100 or 300 μg/kg, i.p. After 1 hour and 3 hours post-dosing, rats were tested in the cold bath assay. For each rat, the assay was run once at 1 and 3 hours post-dose. The time to raise the rear leg was recorded in each trial. The maximal observing time in each trial was 20 seconds.
(§1) Male Sprague-Dawley rats (Harlan), 160-270 g, were surgically prepared to have a chronic constriction injury (CCl) as described above 5 days prior to testing. Rats were selected and tested as described in Example 3. Selected rats were dosed at 0 (vehicle, 10 mL/kg, deionized water), 30 or 300 μg/kg, i.p. After 20 min and 40 minutes post-dosing, rats were tested in the cold bath assay.
as §1, with “170-270” for “160-270”, “14” for “5”
(§2) Heat and cold allodynia responses can be evaluated as described below in rats having a chronic constriction injury (CCl). A unilateral mononeuropathy is produced in rats using the chronic constriction injury model described in Bennett et al. (1988) Pain 33:87-107.
(§3) CCl is produced in anesthetized rats as follows. The lateral aspect of each rat's hind limb is shaved and scrubbed with Nolvasan. Using aseptic techniques, an incision is made on the lateral aspect of the hind limb at the mid-thigh level. The biceps femoris is bluntly dissected to expose the sciatic nerve. On the right hind limb of each rat, four loosely tied ligatures (for example, Chromic gut 4.0; Ethicon, Johnson and Johnson, Somerville, N.J.) are made around the sciatic nerve approximately 1-2 mm apart. On the left side of each rat, an identical dissection is performed except that the sciatic nerve is not ligated (sham). The muscle is closed with a continuous suture pattern with, e.g., 4-0 Vicryl (Johnson and Johnson, Somerville, N.J.) and the overlying skin is closed with wound clips. The rats are ear-tagged for identification purposes and returned to animal housing.

[3] = system: neuropathic rats (chronic constriction injury); assay: Pain response to radiant heat in neuropathic (chronic constriction injury) rats; format: in vivo, rat; details: CCI rats
Description: Male Sprague-Dawley rats (Harlan), 240-300 g, were surgically prepared to have a chronic constriction injury (CCl) as described above 13-15 days prior to testing. Rats were selected for the study according to the following criteria: ligated leg (LL)latency−4 to 14 seconds; sham leg (LS) latency−6 to 18 seconds; difference (LDiff=LL−LS)−greater than 1.5 seconds. Selected rats were randomly assigned to treatment groups and dosed at 0 (vehicle, 10 ml/kg, 0.5% CMC, 30, 60, 100 or 300 μg/kg, i.p. After 45 minutes post-dosing, rats were placed under inverted plastic cages on an elevated glass platform. Following 15 minutes of acclimatization, a radiant heat source, e.g., light was placed below the glass and illuminated in order for the glass to reach a temperature of 80-82° F. For each rat, four trials of each of the following were performed: shone light on the left hind paw (sham) and recorded the latency when the paw was withdrawn; shone light on the right hind paw (ligated) and recorded the latency when the paw was withdrawn. Five minute intervals were allowed between trials. Hind paws were examined for redness and blistering after each test.
Male Sprague-Dawley rats (Harlan), 240-300 g, were surgically prepared to have a CCl as described above 19-21 days prior to testing. Rats were selected for the study according to the following described in Example 2. Selected rats were randomly assigned to treatment groups and dosed with 4-(2-naphthalen-1-yl-5-oxo-oxazol-4-ylidenemethyl)-N-phenyl-piperazine-1-carboxamidine at 0 (vehicle, 10 mL/kg deionized water, 30, 60, 100, 300 or 1000 μg/kg, i.p. After 1 hour post-dosing, rats were tested as described in Example 2.
as §2, §3

[4] = 300 μg/kg i.p., 40 min post-dose
[5] = 60 μg/kg i.p., about 1 hour post-dosing
[6] = 100 μg/kg i.p., about 1 hour post-dosing
[7] = 300 μg/kg i.p., about 1 hour post-dosing
[8] = 100 μg/kg i.p., 1 hour post-dose, p<0.01
[9] = 300 μg/kg i.p., 1 hour post-dose, p<0.01
[10] = 300 μg/kg i.p., 3 hours post-dose, p<0.05

Structure (SMILES)	identification as selective alpha1B adrenergic receptor antagonist [1]	cold allodynia: change in latency from pre-dose compared to vehicle group ([2]; 30 μg/kg i.p., 20 min post-dose)	cold allodynia: change in latency from pre-dose compared to vehicle group ([2]; 300 μg/kg i.p., 20 min post-dose)	cold allodynia: change in latency from pre-dose compared to vehicle group [2, 4]	cold allodynia: latency times compared to pre-dose [2, 4]	cold allodynia: latency times compared to pre-dose ([2]; 20 min post-dose, i.p. (doses tested 30 or 300 μg/kg; dose not given))	effect in the radiant heat assay (paw withdrawal latency) [3, 5]	effect in the radiant heat assay (paw withdrawal latency) [3, 6]	effect in the radiant heat assay (paw withdrawal latency) [3, 7]	effect in the radiant heat assay (paw withdrawal latency) ([3]; 1000 μg/kg i.p., 1 hour post-dosing)	cold allodynia: latency times compared to vehicle control [2, 4]	cold allodynia: actual latency times compared to vehicle [2, 8]	cold allodynia: changes from pre-dose compared to vehicle [2, 8]	cold allodynia: actual latency times compared to vehicle [2, 9]	cold allodynia: changes from pre-dose compared to vehicle [2, 9]	cold allodynia: actual latency times compared to vehicle [2, 10]	cold allodynia: changes from pre-dose compared to vehicle [2, 10]
N=C(Nc1ccccc1)N1CCN(C=C2N=C(c3cccc4ccccc34)OC2=O)CC1 [4-(2-naphthalen-1-yl-5-oxo-oxazol-4-ylidenemethyl)-N-phenyl-piperazine-1-carboxamidine]	identified as a selective alpha1B adrenergic receptor antagonist	significant increase in latency from pre-dose	significant increase in latency from pre-dose	significant change from pre-dose	significant increase in latency	significant change in latency times	significant effect	significant effect	significant effect	significant effect							
Cc1c[nH]c(=O)n(CCCN2CCN(c3ccccc3OCC(F)(F)F)CC2)c1=O [3-(3-{4-[2-(2,2,2-trifluoroethoxy)phenyl]-piperazin-1-yl}propyl)-5-methyl-2,4(1H,3H)-pyrimidinedione, reference compound]				significant changes							significant increase in latency times						
Cl.N=C(Nc1ccccc1)N1CCN(C=C2N=C(c3cccc4ccoc34)OC2=O)CC1 [4-(2-benzofuran-7-yl-5-oxo-oxazol-4-ylidenemethyl)-N-phenyl-piperazine-1-carboxamidine hydrochloride]	identified as selective alpha1B adrenergic receptor antagonists						significant effect	significant effect	significant effect			significantly higher than vehicle	significantly higher than vehicle	significantly higher than vehicle	significantly higher than vehicle	significantly higher than vehicle	significantly higher than vehicle
